Results: patent US20100324285A1, “ANTIINFLAMMATORY AGENT COMPRISING 2-AMINOPHENOL OR DERIVATIVE THEREOF AS ACTIVE INGREDIENT” (priority 2006, published 2010)

Key:
[1] = tested on: RAW264.7 cells; assay: PGE2 production by macrophage RAW264.7, PGE2-EIA kit; format: cell-based, mouse; conditions: LPS + IFN-γ, 2 days, relative level versus control
From the text: (§1) RAW264.7 cells, a murine macrophage cell strain, were suspended in PRMI1640 medium supplied with 10% (v/v) fetal calf serum (hereinafter abbreviated as “FCS”) to give a cell suspension with a cell concentration of 1×10^6 cells/ml. […] The experimental system without the test samples described above was set as control. […] NO production, PGE2 production and macrophage growth are indicated as relative levels versus controls.

[2] = tested on: RAW264.7 cells; assay: Macrophage growth, living cell count; format: cell-based, mouse; conditions: 2 days, relative level versus control
From the text: as §1

[3] = tested on: iNOS; assay: Amount of iNOS in cell extracts, western blotting; format: cell-based, mouse; conditions: RAW264.7 cell extracts of Experiment 2, anti-iNOS antibody
Method: In addition, the amount of iNOS in the cell extracts of this experiment was measured by western blotting analysis using an anti-iNOS antibody.

[4] = tested on: β-hexosaminidase; assay: Direct inhibition of β-hexosaminidase activity of whole granule extract; format: biochemical, rat; conditions: 40 μM added
Method: Separately, the whole granule extract described above was injected into a 96-well microplate by 50 μl per well. Each well was admixed with 50 μl of 0.1 M citrate buffer (pH 4.5) containing 1 mM PNAC and warmed at 37° C. for one hour. The reaction was stopped by adding 50 μl of 0.1 M sodium carbonate (pH 10.5), measuring the absorbance at 405 to 650 nm. As control, the same measurement as described above was carried out using BSA-containing Siraganian buffer alone. […] The resultant data was obtained by averaging the measurement values from 3 wells each of the test sample or the whole granule extract.

With `Nc1cc2nc3ccccc3oc-2cc1=O` [2-Aminophenoxazine-3-one, 2-aminophenoxazine-3-one] the “PGE2 production (%)” value ([1]; 0.16 μM) was 76%, the “PGE2 production (%)” value ([1]; 0.31 μM) was 45% and the “PGE2 production (%)” value ([1]; 0.63 μM) was 13%. The “PGE2 production (%)” value ([1]; 1.3 μM) was 6%, the “PGE2 production (%)” value ([1]; 2.5 μM) was 1% and the “PGE2 production (%)” value ([1]; 5.0 μM) was 3%. For the same molecule, the “PGE2 production (%)” value ([1]; 10 μM) was 2%, the “Macrophage growth (%)” value ([2]; 0.16 μM) was 117% and the “Macrophage growth (%)” value ([2]; 0.31 μM) was 121%. For the same molecule, the “Macrophage growth (%)” value ([2]; 0.63 μM) was 127%, the “Macrophage growth (%)” value ([2]; 1.3 μM) was 127% and the “Macrophage growth (%)” value ([2]; 2.5 μM) was 119%. The “Macrophage growth (%)” value ([2]; 5.0 μM) was 112%, the “Macrophage growth (%)” value ([2]; 10 μM) was 86% and the “amount of iNOS” value [3] was “decreased depending on the 2-aminophenoxazine-3-one concentration”. The “inhibition rate of β-hexosaminidase activity” value [4] was −9.9%.
